Data: patent US20230117034A1, “PYRAZOLOTRIAZINES” (Bayer Aktiengesellschaft, priority 2019, published 2023)

target: T1, CDK2/CycE (Homo sapiens, UniProt P24941); assay: CDK2/CycE kinase assay (TR-FRET, 2 mM ATP); format: biochemical; conditions: 2 mM ATP (high ATP); median; read-out: CDK2/CyclinE, 2 mM ATP (high ATP), IC50 (median)
T1 construct: purchased ProQinase GmbH (Freiburg, Germany); host or cells: insect cells (Sf9)
Excerpt: CDK2/CycE-inhibitory activity of compounds of the present invention was quantified employing the CDK2/CycE TR-FRET assay as described in the following paragraphs.
Recombinant fusion proteins of GST and human CDK2 and of GST and human CycE, expressed in insect cells (Sf9) and purified by Glutathion-Sepharose affinity chromatography, were purchase from ProQinase GmbH (Freiburg, Germany). As substrate for the kinase reaction biotinylated peptide biotin-Ttds-YISPLKSPYKISEG (C-terminus in amid form) was used which can be purchased e.g. form the company JERINI peptide technologies (Berlin, Germany).
For the assay 50 nanoL of a 100 fold concentrated solution of the test compound in DMSO was pipetted into a black low volume 384 well microtiter plate or a black 1536 well microtiter plate (both Greiner Bio-One, Frickenhausen, Germany), 2 microL of a solution of CDK2/CycE in aqueous assay buffer [50 millimol/L Tris/HCl pH 8.0, 10 millimol/L MgCl2, 1.0 millimol/L dithiothreitol, 0.1 millimol/L sodium ortho-vanadate, 0.01% (v/v) Nonidet-P40 (Sigma)] were added and the mixture was incubated for 15 min at 22° C. to allow pre-binding of the test compounds to the enzyme before the start of the kinase reaction. Then the kinase reaction was started by the addition of 3 microL of a solution of adenosine-tri-phosphate (ATP, 3.33 millimol/L=>final conc. in the 5 microL assay volume is 2 millimol/L) and substrate (1.25 micromol/L=>final conc. in the 5 microL assay volume is 0.75 micromol/L) in assay buffer and the resulting mixture was incubated for a reaction time of 25 min at 22° C. The concentration of CDK2/CycE was adjusted depending of the activity of the enzyme lot and was chosen appropriate to have the assay in the linear range, typical concentrations were in the range of 10 ng/ml. The reaction was stopped by the addition of 3 microL of a solution of TR-FRET detection reagents (0.333 micromol/L streptavidine-XL665 [Cisbio Bioassays, Codolet, France] and 1.67 nanomol/L anti-RB(pSer807/pSer8l 1)-antibody from BD Pharmingen [#558389] and 2 nanomol/L LANCE EU-W1024 labeled anti-mouse IgG antibody [Perkin-Elmer, product no. AD0077, as an alternative a Terbium-cryptate-labeled anti-mouse IgG antibody from Cisbio Bioassays can be used]) in an aqueous EDTA-solution (167 millimol/L EDTA, 0.2% (w/v) bovine serum albumin in 100 millimol/L HEPES pH 7.5).
The resulting mixture was incubated 1 h at 22° C. to allow the formation of complex between the phosphorylated biotinylated peptide and the detection reagents. Subsequently the amount of phosphorylated substrate was evaluated by measurement of the resonance energy transfer from the Eu-chelate to the streptavidine-XL. Therefore, the fluorescence emissions at 620 nm and 665 nm after excitation at 350 nm was measured in a TR-FRET reader, e.g. a Pherastar (BMG Labtechnologies, Offenburg, Germany) or a Viewlux (Perkin-Elmer). The ratio of the emissions at 665 nm and at […] was taken as the measure for the amount of phosphorylated substrate. The data were normalised (enzyme reaction without inhibitor=0% inhibition, all other assay components but no enzyme=100% inhibition).

| Compound | IC50 [µM] |
| --- | --- |
| Brc1cnn2c(NCc3nc4ccccc4[nH]3)nc(N3C[C@@H]4C[C@H]3CO4)nc12 [Example 103, N-[(1H-benzimidazol-2-yl)methyl]-8-bromo-2-[(1S,4S)-2-oxa-5-azabicyclo[2.2.1]heptan-5-yl]pyrazolo[1,5-a][1,3,5]triazin-4-amine] | 9.05 |
| c1ccc2[nH]c(CNc3nc(N4CCOCC4)nc4c(-c5ccncc5)cnn34)nc2c1 [Example 111, N-[(1H-benzimidazol-2-yl)methyl]-2-(morpholin-4-yl)-8-(pyridin-4-yl)pyrazolo[1,5-a][1,3,5]triazin-4-amine hydrogen chloride (1/1)] | > 20 |
| C[C@@H]1CN(c2nc(NCc3nc4c(F)cccc4[nH]3)n3ncc(Br)c3n2)C[C@H](C)O1 [Example 109, 8-bromo-2-[(2R,6S)-2,6-dimethylmorpholin-4-yl]-N-[(4-fluoro-1H-benzimidazol-2-yl)methyl]pyrazolo[1,5-a][1,3,5]triazin-4-amine] | 4.01 |
| C[C@@H]1CN(c2nc(NCc3nc4cc(F)ccc4[nH]3)n3ncc(Br)c3n2)C[C@H](C)O1 [Example 110, 8-bromo-2-[(2R,6S)-2,6-dimethylmorpholin-4-yl]-N-[(5-fluoro-1H-benzimidazol-2-yl)methyl]pyrazolo[1,5-a][1,3,5]triazin-4-amine] | 8.21 |
| CC(C)c1cnn2c(NCc3nc4ccccc4[nH]3)nc(N3CCOC[C@H]3C)nc12 [Example 7, N-[(1H-benzimidazol-2-yl)methyl]-2-[(3R)-3-methylmorpholin-4-yl]-8-(propan-2-yl)pyrazolo[1,5-a][1,3,5]triazin-4-amine] | 6.57 |
| Brc1cnn2c(NCc3nnc(-c4ccccc4)[nH]3)nc(N3C[C@H]4C[C@@H]3CO4)nc12 [Example 118, 8-bromo-2-[(1R,4R)-2-oxa-5-azabicyclo[2.2.1]heptan-5-yl]-N-[(5-phenyl-4H-1,2,4-triazol-3-yl)methyl]pyrazolo[1,5-a][1,3,5]triazin-4-amine] | 3.39 |
| CC(C)c1cnn2c(NCc3nc4ccccc4[nH]3)nc(N3CCCOCC3)nc12 [Example 8, N-[(1H-benzimidazol-2-yl)methyl]-2-(1,4-oxazepan-4-yl)-8-(propan-2-yl)pyrazolo[1,5-a][1,3,5]triazin-4-amine] | 11.1 |
| NCCCc1cccc2[nH]c(CNc3nc(N4CCOCC4)nc4c(Br)cnn34)nc12.O=CO [Example 114, formic acid-N-{[4-(3-aminopropyl)-1H-benzimidazol-2-yl]methyl}-8-bromo-2-(morpholin-4-yl)pyrazolo[1,5-a][1,3,5]triazin-4-amine (1/1)] | 5.44 |
| C[C@@H]1CN(c2nc(NCc3nnc(-c4ccccc4)[nH]3)n3ncc(Br)c3n2)C[C@H](C)N1C [Example 125, 8-bromo-N-[(5-phenyl-4H-1,2,4-triazol-3-yl)methyl]-2-[(3R,5S)-3,4,5-trimethylpiperazin-1-yl]pyrazolo[1,5-a][1,3,5]triazin-4-amine] | 13.2 |
| c1ccc(-c2cnn3c(NCc4nc5ccccc5[nH]4)nc(N4CCOCC4)nc23)cc1 [Example 104, N-[(1H-benzimidazol-2-yl)methyl]-2-(morpholin-4-yl)-8-phenylpyrazolo[1,5-a][1,3,5]triazin-4-amine] | > 20 |
| Brc1cnn2c(NCc3nc4ccccc4[nH]3)nc(N3CCN4CCC[C@H]4C3)nc12 [Example 148, N-[(1H-benzimidazol-2-yl)methyl]-8-bromo-2-[(8aS)-hexahydropyrrolo[1,2-a]pyrazin-2 (1 H)-yl]pyrazolo[1,5-a][1,3,5]triazin-4-amine] | 12.6 |
| Clc1cccc(-c2cnn3c(NCc4nc5ccccc5[nH]4)nc(N4CCOCC4)nc23)c1 [Example 107, N-[(1H-benzimidazol-2-yl)methyl]-8-(3-chlorophenyl)-2-(morpholin-4-yl)pyrazolo[1,5-a][1,3,5]triazin-4-amine] | > 20 |
| Fc1ccc2[nH]c(CNc3nc(N4CCOCC4)nc4c(Br)cnn34)nc2c1 [Example 101, 8-bromo-N-[(5-fluoro-1H-benzimidazol-2-yl)methyl]-2-(morpholin-4-yl)pyrazolo[1,5-a][1,3,5]triazin-4-amine] | 3.88 |
| Brc1cnn2c(NCc3nnc(-c4ccccc4)[nH]3)nc(N3CCNCC3)nc12.O=CO [Example 119, 8-bromo-N-[(5-phenyl-4H-1,2,4-triazol-3-yl)methyl]-2-piperazin-1-yl-pyrazolo[1,5-a][1,3,5]triazin-4-amine formate] | 7.77 |
| C[C@H]1CN(c2nc(NCc3nnc(-c4ccccc4)[nH]3)n3ncc(Br)c3n2)CCN1C.O=CO [Example 122, 8-bromo-2-[(3S)-3,4-dimethylpiperazin-1-yl]-N-[(5-phenyl-4H-1,2,4-triazol-3-yl)methyl]pyrazolo[1,5-a][1,3,5]triazin-4-amine formate] | 6.72 |
| Fc1ccc(-c2cnn3c(NCc4nc5ccccc5[nH]4)nc(N4CCOCC4)nc23)cc1 [Example 106, N-[(1H-benzimidazol-2-yl)methyl]-8-(4-fluorophenyl)-2-(morpholin-4-yl)pyrazolo[1,5-a][1,3,5]triazin-4-amine] | > 20 |
| Brc1cnn2c(NCc3nnc(-c4ccccc4)[nH]3)nc(N3C[C@@H]4C[C@H]3CO4)nc12 [Example 120, 8-bromo-2-[(1S,4S)-2-oxa-5-azabicyclo[2.2.1]heptan-5-yl]-N-[(5-phenyl-4H-1,2,4-triazol-3-yl)methyl]pyrazolo[1,5-a][1,3,5]triazin-4-amine] | 15.4 |

Now those with a lower IC50, led by results:

| IC50 [µM] | Compound |
| --- | --- |
| 1.77 | Fc1ccc(-c2nnc(CNc3nc(N4CCOCC4)nc4c(Br)cnn34)[nH]2)cc1F [Example 99, 8-bromo-N-{[5-(3,4-difluorophenyl)-4H-1,2,4-triazol-3-yl]methyl}-2-(morpholin-4-yl)pyrazolo[1,5-a][1,3,5]triazin-4-amine] |
| 3.01 | CCC1COCCN1c1nc(NCc2nc3ccccc3[nH]2)n2ncc(Br)c2n1 (stereo not shown) [Example 116, N-(1H-benzimidazol-2-ylmethyl)-8-bromo-2-(3-ethylmorpholin-4-yl)pyrazolo[1,5-a][1,3,5]triazin-4-amine] |
| 1.36 | CC(C)c1cnn2c(NCc3nc4ccccc4[nH]3)nc(N(C)CC(C)(C)O)nc12 [Example 5, 1-{[4-{[(1H-benzimidazol-2-yl)methyl]amino}-8-(propan-2-yl)pyrazolo[1,5-a][1,3,5]triazin-2-yl](methyl)amino}-2-methylpropan-2-ol] |
| 1.78 | Clc1ccccc1-c1cnc(CNc2nc(N3CCOCC3)nc3c(Br)cnn23)[nH]1 [Example 96, 8-bromo-N-{[5-(2-chlorophenyl)-1H-imidazol-2-yl]methyl}-2-(morpholin-4-yl)pyrazolo[1,5-a][1,3,5]triazin-4-amine] |
| 2.2 | CN1CCN(c2nc(NCc3nnc(-c4ccccc4)[nH]3)n3ncc(Br)c3n2)CC1=O [Example 121, 4-(8-bromo-4-{[(5-phenyl-4H-1,2,4-triazol-3-yl)methyl]amino}pyrazolo[1,5-a][1,3,5]triazin-2-yl)-1-methylpiperazin-2-one] |
| 1.2 | NCCc1ccc2[nH]c(CNc3nc(N4CCOCC4)nc4c(Br)cnn34)nc2c1.O=CO [Example 113, formic acid-N-{[5-(2-aminoethyl)-1H-benzimidazol-2-yl]methyl}-8-bromo-2-(morpholin-4-yl)pyrazolo[1,5-a][1,3,5]triazin-4-amine (1/1)] |
| 1.83 | Fc1cc(-c2nnc(CNc3nc(N4CCOCC4)nc4c(Br)cnn34)[nH]2)cc(F)c1F [Example 100, 8-bromo-2-(morpholin-4-yl)-N-{[5-(3,4,5-trifluorophenyl)-4H-1,2,4-triazol-3-yl]methyl}pyrazolo[1,5-a][1,3,5]triazin-4-amine] |
| 2.42 | Brc1cnn2c(NCc3nc4ccccc4[nH]3)nc(N3C[C@H]4C[C@@H]3CO4)nc12 [Example 102, N-[(1H-benzimidazol-2-yl)methyl]-8-bromo-2-[(1R,4R)-2-oxa-5-azabicyclo[2.2.1]heptan-5-yl]pyrazolo[1,5-a][1,3,5]triazin-4-amine] |
